Earlier results on two molecules are cited in US7183112B2, “Uses for anti-malarial therapeutic agents” (APT Pharmaceuticals, LLC, priority 1999, dated 2007).

One series concerns allergic asthma. Particulars: Fahy et al. 1999, cited from earlier work.
For series [1] the following is noted: cited from earlier work.

Structures can show the parent of a compound that is named as a salt. Where two headings read alike, the source gives them in different places.

In the case of “Anti IgE(E25): Anti IgE(E25), given intravenously or by inhalation for allergic asthma (Fahy et al.)”, the “efficacy for treating allergic asthma” value was “virtually ineffective” with allergic asthma (inhalation) and “effective” in the series with allergic asthma (intravenous administration).
As for `CCN(CCO)CCCC(C)Nc1ccnc2cc(Cl)ccc12` (stereo not drawn) [hydroxychloroquine sulfate], the solubility in water result in series [1] is given as “readily soluble”.
